Where two headings read alike, the source gives them in different places.
Experiments:
Tricophyton rubrum = assay: MIC of propylene glycol alone and mixed with lactic acid; format: cell-based; conditions: propylene glycol (100%) alone
Description: (§1) The minimal inhibitory concentration (MIC) for propylene glycol (100%) tested on the bacterium Staphylococcus aureus and the dermophyte Tricophyton rubrum dropped from 8 % to 0.15 % and 0.38 % respectively if lactic acid was mixed with propylene glycol in the ratios 3:10 or 2:3. The composition gave a minimal inhibitory effect at concentration 0.25% and 0.5 % respectively. These MIC-values should be compared with the considerably higher MIC-values of 40 %, which were obtained when propylene glycol at 20 % was combined with aluminium acetotartrate (SE 8802257-9). […] Also other concentration ratios gave stronger but not optimum effect. The antimicrobial effects were not proportionate to the degree of acidity (pH).

Staphylococcus aureus [1] = assay: as above; format: cell-based; conditions: propylene glycol (100%) alone
Description: as §1

fungi and bacteria = conditions: in vitro, cited from earlier work; for antimicrobial effect on comparison: 30 % diol
Pityrosporum ovale = conditions: 50 % aqueous solution; cited from earlier work
[2] = pH in the various MIC plates; format: physicochemical
Method: (§2) The components included in the composition were weighed with decimal precision. A dilution series in sterile destilled water was made where the completed composition is dilution 1. Dilution 2 is 50 % of the composition, dilution 3 is 25 % etc. One thus gets a series of 100 - 50 - 25 - 12.5 - 6.3- 3.1 - 1.6 - 0.8 - 0.4 - 0.2 - 0.1 %. To said dilutions the same amount (volume) of Oxoids Isosensitest agar was added at 62.4 g medium per litre.
(§3) The Isosensitest agar is prepared and sterilized according to the maker's instructions. […] Furthermore a plate without the composition was prepared, called a blanc plate. From the different mixtures MIC-plates are moulded in sterile Petri dishes. From each agent a suspension was made corresponding to MacFarland 1. From this 0.2 ml was added to each MIC-plate and the blanc plate with a pipette. The MIC-plates were incubated in a thermostat having an optimum temperature for the agent. The MIC-value is the concentration of the composition on the MIC-plate where growth has stopped completely. Example. Agent 1 grows in 0.1 %, 0.2 %, 0.4 %, On the 0.8 %-plate the growth is weak but visible.

Malassezia furfur = assay: MIC-plate determination (agar dilution), agent B1; format: cell-based; conditions: agent B1, Malassezia furfur (Pityrosporum ovale)
Method: (§4) A determination of the minimum inhibitory concentration (MIC) was carried out for different compositions of acid/glycol on different microorganisms.
as §2, §3

Aspergillus niger = assay: MIC-plate determination (agar dilution), agents D1 and D2; format: cell-based; conditions: clinical isolate
Method: as §4, §2, §3

Trichophyton rubrum = assay: MIC-plate determination (agar dilution), agents C1 and C2; format: cell-based; conditions: clinical isolate
Method: as §4, §2, §3

Pityrosporum orbiculare = assay: MIC-plate determination (agar dilution), agent B2; format: cell-based; conditions: agent B2, Pityrosporum orbiculare (Pityrosporum ovale)
Method: as §4, §2, §3

Streptococcus pyogenes = assay: MIC-plate determination (agar dilution), agents F1 and F2; format: cell-based; conditions: clinical isolate
Method: as §4, §2, §3

Candica albicans = assay: MIC-plate determination (agar dilution), agents A1 and A2; format: cell-based; conditions: clinical isolate
Method: as §4, §2, §3

Pseudomonas aeruginosa = assay: MIC-plate determination (agar dilution), agents G1 and G2; format: cell-based; conditions: clinical isolate
Method: as §4, §2, §3

Staphylococcus aureus [3] = assay: MIC-plate determination (agar dilution), agents E1 and E2; format: cell-based; conditions: clinical isolate
Method: as §4, §2, §3

## CC(O)CO (stereo not drawn) [Composition 1, Propylene glycol]
Tricophyton rubrum
  minimal inhibitory concentration (MIC) for propylene glycol: 8%
Staphylococcus aureus [1]
  minimal inhibitory concentration (MIC) for propylene glycol: 8%
Fungi and bacteria
  antimicrobial effect on comparison: about as effective as 10 % hexylene glycol
Pityrosporum ovale
  effect against Pityriasis versicolor: effective

## OCCCCO [Composition 2, Butylene glycol]
Fungi and bacteria
  antimicrobial effect on comparison: about as effective as 10 % hexylene glycol

## CC(O)CC(C)(C)O (stereo not drawn) [Composition 3]
[2]; MIC-plate 0.05 (% composition in Isosensitest agar)
  pH in the MIC plate: 7
[2]; MIC-plate 0.1 (% composition in Isosensitest agar)
  pH in the MIC plate: 7
[2]; MIC-plate 0.2 (% composition in Isosensitest agar)
  pH in the MIC plate: 7
[2]; MIC-plate 0.4 (% composition in Isosensitest agar)
  pH in the MIC plate: 7
[2]; MIC-plate 0.8 (% composition in Isosensitest agar)
  pH in the MIC plate: 7
[2]; MIC-plate 1.6 (% composition in Isosensitest agar)
  pH in the MIC plate: 7
[2]; MIC-plate 3.1 (% composition in Isosensitest agar)
  pH in the MIC plate: 7
[2]; MIC-plate 6.3 (% composition in Isosensitest agar)
  pH in the MIC plate: 7
[2]; MIC-plate 12.5 (% composition in Isosensitest agar)
  pH in the MIC plate: 7
[2]; MIC-plate 25 (% composition in Isosensitest agar)
  pH in the MIC plate: 7
[2]; MIC-plate 50 (% composition in Isosensitest agar)
  pH in the MIC plate: 7
Malassezia furfur
  MIC-value: 25%
Aspergillus niger; agent D1, Aspergillus niger
  MIC-value: 6.3%
Aspergillus niger; agent D2, Aspergillus niger
  MIC-value: 6.3%
Trichophyton rubrum; agent C1, Trichophyton rubrum
  MIC-value: 0.8%
Trichophyton rubrum; agent C2, Trichophyton rubrum
  MIC-value: 0.8%
Pityrosporum orbiculare
  MIC-value: 25%
Streptococcus pyogenes; agent F1, Streptococcus pyogenes
  MIC-value: 12.5%
Streptococcus pyogenes; agent F2, Streptococcus pyogenes
  MIC-value: 12.5%
Candica albicans; agent A1, Candica albicans
  MIC-value: 6.3%
Candica albicans; agent A2, Candica albicans
  MIC-value: 6.3%
Pseudomonas aeruginosa; agent G1, Pseudomonas aeruginosa
  MIC-value: 1.6%
Pseudomonas aeruginosa; agent G2, Pseudomonas aeruginosa
  MIC-value: 3.1%
Staphylococcus aureus [3]; agent E1, Staphylococcus aureus
  MIC-value: 12.5%
Staphylococcus aureus [3]; agent E2, Staphylococcus aureus
  MIC-value: 12.5%

## Hexylene glycol [Composition 3]
Fungi and bacteria; 1 % of the agent
  antimicrobial effect: lacked effect
Fungi and bacteria; 5 % hexylene glycol
  antimicrobial effect: a certain antimicrobial effect
Fungi and bacteria; 10-30 % hexylene glycol
  antimicrobial effect: showed antimicrobial effect within 20 hours

Source: EP0785714B2, “ANTIMICROBIAL COMPOSITION” (Moberg, Sven, priority 1994, dated 1996)
